Source: patent US20250064945A1 (Arvinas Operations, Inc., priority 2021, published 2025)

Biological target: T1, BRM (Homo sapiens, UniProt P51531)
T1 construct: In-Cell Western Screen of BRM Degradation in SW1573 Cells; endogenous in cells; host or cells: SW1573 cells
Experiment: Western blot / In-Cell Western screen of BRM degradation in SW1573 cells
Assay type: cell-based
Conditions: overnight (18-20 hours) treatment; for Dmax: read-out: Dmax (%) (% degraded)
Procedure: Western Blot Screen of BRM Degradation in SW1573 Cells
(§1) To assess BRM degradation (Dmax and DC50) cells were seeded at 8000/well in 96-well black/clear-bottom plates in 180 μL DMEM growth media (containing 1% pen-strep, 1% HEPES and 10% FBS) per well. Plates were incubated overnight to allow adhesion. The next morning cells were treated by adding 20 μL of 10× target compound concentration (1% DMSO) to appropriate wells and returned to incubator for overnight (18-20 hours). The final DMSO concentration was 0.1%.
For lysing, adherent cells were washed once with 100 μL of DPBS. Cells were lysed in 40 μL of 1× RIPA+HALT protease inhibitor on ice for 10 minutes and frozen until use at −80° C. Thawed lysates were cleaned by filtration in 1.2 µm filter plates, or alternatively, were spun clean at 2300 g at 4° C. for 30 minutes.
For blotting, for each Western sample 30 μL of lysate was added to 10 μL of 4×LDS sample buffer, then denatured at 95° C. for 5 minutes in the thermal cycler and placed on ice. Samples were loaded on 4-15% Tris/Glycine gels and run for 25 minutes at 250 constant volts in 1×Tris/Glycine buffer with 4 μL of ladder and 12 μL of each sample loaded for each blot. Protein was transferred from gels to NC with BioRad Turbo dry-transfer unit with the Turbo/midi default program. All blots were rinsed with ddH2O and blocked for 1 hour at room temperature in 5% BSA in TBST (0.1%) on rocker. Blots were exposed to primary antibody in 5% BSA in TBST (0.1%) overnight at 4° C. on rocker (1:1000 for BRM (Cell Signaling Tech. cat #11966) and 1:2000 for alpha-tubulin (Cell Signaling Tech. cat #3873), a control protein. Blot was washed with TBST (0.1%) three times for 5 minutes on rocker at room temperature. Secondary antibody was added, and blots were incubated on a room temperature rocker for 1 hour with 1:18,000 anti-rabbit-HRP and/or anti-mouse-HRP in 5% BSA in TBST (0.1%). Blots were washed three times in TBST (0.1%) for 5 minutes at room temperature on the rocker. Signal was developed with Femto Maximum Sensitivity substrate for 4 minutes and blots read on ChemiDoc™.
In-Cell Western Screen of BRM Degradation in SW1573 Cells
as §1, with “DC50),” for “DC50)”, “10×” for “10× target”, “compound” for “compound concentration”
For processing, the plates were removed from incubator, the media was removed, and immediately 200 μL of cold (4° C.) DPBS was added to all wells. DPBS was then removed, and 50 μL of 4% paraformaldehyde (PFA) in DPBS (4° C.) was added to all wells, and the plates were incubated at room temperature for 20 minutes. PFA was then removed, and 200 μL of TBS-T containing 0.5% Triton X-100 was added to all wells, and the plates were incubated at room temperature for 30 minutes. TBS-T containing 0.5% Triton X-100 was then removed, and 50 μL of Li-Cor blocking solution was added, and the plates were incubated at room temperature for a minimum of one hour. The blocking solution was removed, and 50 μL of Li-Cor blocking solution containing primary antibody cocktail was added (1:1000 for BRM (Cell Signaling Tech. cat #11966) and 1:2000 for alpha-tubulin (Sigma cat #T6074), a control protein. Plates were then placed in cold room until the next day.
The next day plates were washed three times with TBS-T, 200 μL per well. Fifty […] of secondary antibody cocktail in LI-COR blocking solution (anti-rabbit_800 nm and anti-mouse_680 nm) was added to all wells (diluted 1:5000). The plates were incubated at room temperature for at least one hour while protected from light. The plates were washed twice with TBS-T, 200 μL per well. […]

T1 sequence (P51531 whole entry): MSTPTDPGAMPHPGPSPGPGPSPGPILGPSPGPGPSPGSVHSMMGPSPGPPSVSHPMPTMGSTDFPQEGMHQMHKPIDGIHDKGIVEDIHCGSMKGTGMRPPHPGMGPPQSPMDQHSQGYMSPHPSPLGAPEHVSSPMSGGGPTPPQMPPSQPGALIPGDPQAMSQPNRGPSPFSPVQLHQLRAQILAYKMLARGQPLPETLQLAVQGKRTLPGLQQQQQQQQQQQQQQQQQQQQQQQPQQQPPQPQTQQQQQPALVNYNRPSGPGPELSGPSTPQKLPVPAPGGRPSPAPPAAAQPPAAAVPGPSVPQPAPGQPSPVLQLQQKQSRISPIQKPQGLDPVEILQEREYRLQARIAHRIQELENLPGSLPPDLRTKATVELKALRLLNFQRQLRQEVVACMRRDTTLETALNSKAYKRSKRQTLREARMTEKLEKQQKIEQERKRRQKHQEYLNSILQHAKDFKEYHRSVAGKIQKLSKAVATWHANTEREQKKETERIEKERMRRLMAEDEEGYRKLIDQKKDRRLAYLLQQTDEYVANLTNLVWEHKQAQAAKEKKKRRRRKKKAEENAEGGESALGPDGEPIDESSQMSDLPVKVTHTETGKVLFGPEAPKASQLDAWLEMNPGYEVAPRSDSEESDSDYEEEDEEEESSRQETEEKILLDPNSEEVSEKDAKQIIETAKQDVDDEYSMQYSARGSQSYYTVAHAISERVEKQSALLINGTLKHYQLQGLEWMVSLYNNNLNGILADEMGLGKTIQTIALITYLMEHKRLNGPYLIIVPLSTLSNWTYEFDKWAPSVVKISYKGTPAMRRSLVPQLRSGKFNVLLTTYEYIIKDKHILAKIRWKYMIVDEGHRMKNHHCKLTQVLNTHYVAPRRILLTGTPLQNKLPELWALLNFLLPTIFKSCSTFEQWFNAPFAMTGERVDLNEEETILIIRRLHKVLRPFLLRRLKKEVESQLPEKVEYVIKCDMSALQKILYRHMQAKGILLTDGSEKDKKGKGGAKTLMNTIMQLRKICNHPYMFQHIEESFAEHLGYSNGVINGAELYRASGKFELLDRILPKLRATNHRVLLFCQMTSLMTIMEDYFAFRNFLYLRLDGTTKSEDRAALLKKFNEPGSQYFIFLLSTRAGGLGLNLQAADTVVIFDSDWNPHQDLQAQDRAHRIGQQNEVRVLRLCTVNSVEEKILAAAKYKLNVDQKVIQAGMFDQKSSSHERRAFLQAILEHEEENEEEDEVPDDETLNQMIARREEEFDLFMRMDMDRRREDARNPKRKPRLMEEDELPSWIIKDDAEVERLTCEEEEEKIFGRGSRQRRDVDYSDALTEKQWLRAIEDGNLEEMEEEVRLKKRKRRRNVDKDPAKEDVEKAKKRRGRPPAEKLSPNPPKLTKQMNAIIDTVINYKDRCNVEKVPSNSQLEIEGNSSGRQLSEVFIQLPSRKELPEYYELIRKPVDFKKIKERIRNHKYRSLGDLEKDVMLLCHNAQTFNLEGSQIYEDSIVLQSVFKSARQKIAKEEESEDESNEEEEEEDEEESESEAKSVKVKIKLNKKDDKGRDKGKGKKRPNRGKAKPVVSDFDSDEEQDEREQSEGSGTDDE

Compound	DC50 [nM]	Dmax [%]
CC(C)[C@@H](C(=O)N1C[C@H](O)C[C@H]1C(=O)N[C@@H](C)c1ccc(-c2ccnn2C)cc1)c1cc(N2CCC(CN3CCC(O[C@H]4C[C@H](n5cc(-c6cn7cc(-c8ccccc8O)nc7nc6N)cn5)C4)CC3)CC2)no1 [Compound 41, (2S,4R)-4-hydroxy-N-[(1S)-1-[4-(1-methyl-1H-pyrazol-5-yl)phenyl]ethyl]-1-[(2R)-3-methyl-2-{3-[4-({4-[(1r,3r)-3-{4-[7-amino-2-(2-hydroxyphenyl)imidazo[1,2-a]pyrimidin-6-yl]-1H-pyrazol-1-yl}cyclobutoxy]piperidin-1-yl}methyl)piperidin-1-yl]-1,2-oxazol-5-yl}butanoyl]pyrrolidine-2-carboxamide]	< 2.5	> 75
Cc1ncsc1-c1ccc([C@H](C)NC(=O)[C@@H]2C[C@@H](O)CN2C(=O)[C@@H](c2cc(N3CCC(CN4CCC(O[C@H]5C[C@H](n6cc(CN7C8CCC7CN(c7cc(-c9ccccc9O)nnc7N)C8)cn6)C5)CC4)CC3)no2)C(C)C)cc1 [Compound 12, (2S,4R)-4-hydroxy-N-[(1S)-1-[4-(4-methyl-1,3-thiazol-5-yl)phenyl]ethyl]-1-[(2R)-3-methyl-2-{3-[4-({4-[(1r,3r)-3-[4-({3-[3-amino-6-(2-hydroxyphenyl)pyridazin-4-yl]-3,8-diazabicyclo[3.2.1]octan-8-yl}methyl)-1H-pyrazol-1-yl]cyclobutoxy]piperidin-1-yl}methyl)piperidin-1-yl]-1,2-oxazol-5-yl}butanoyl]pyrrolidine-2-carboxamide]	2.5 to 10	> 75
Cc1ncsc1-c1ccc([C@H](C)NC(=O)[C@@H]2C[C@@H](O)CN2C(=O)[C@@H](c2cc(N3CCC(CN4CCC(O[C@H]5C[C@H](n6cnc(CN7C8CCC7CN(c7cc(-c9ccccc9O)nnc7N)C8)c6)C5)CC4)CC3)no2)C(C)C)cc1 [Compound 3, (2S,4R)-4-hydroxy-N-[(1S)-1-[4-(4-methyl-1,3-thiazol-5-yl)phenyl]ethyl]-1-[(2R)-3-methyl-2-{3-[4-({4-[(1r,3r)-3-[4-({3-[3-amino-6-(2-hydroxyphenyl)pyridazin-4-yl]-3,8-diazabicyclo[3.2.1]octan-8-yl}methyl)-1H-imidazol-1-yl]cyclobutoxy]piperidin-1-yl}methyl)piperidin-1-yl]-1,2-oxazol-5-yl}butanoyl]pyrrolidine-2-carboxamide]	< 2.5	> 75
Cc1ncsc1-c1ccc([C@H](C)NC(=O)[C@@H]2C[C@@H](O)CN2C(=O)[C@@H](c2cc(N3CCC(CN4CCC(O[C@H]5C[C@H](N6CCC(CN7CCN(c8cc(-c9ccccc9O)nnc8N)CC78COC8)CC6)C5)CC4)CC3)no2)C(C)C)cc1 [Compound 13, (2S,4R)-4-hydroxy-N-[(1S)-1-[4-(4-methyl-1,3-thiazol-5-yl)phenyl]ethyl]-1-[(2R)-3-methyl-2-{3-[4-({4-[(1r,3r)-3-[4-({8-[3-amino-6-(2-hydroxyphenyl)pyridazin-4-yl]-2-oxa-5,8-diazaspiro[3.5]nonan-5-yl}methyl)piperidin-1-yl]cyclobutoxy]piperidin-1-yl}methyl)piperidin-1-yl]-1,2-oxazol-5-yl}butanoyl]pyrrolidine-2-carboxamide]	< 2.5	> 75
Cc1ncsc1-c1ccc([C@H](C)NC(=O)[C@@H]2C[C@@H](O)CN2C(=O)[C@@H](c2cc(N3CCC(CN4CCC(O[C@H]5C[C@H](OCC#Cc6cn7cc(-c8ccccc8O)nc7nc6N)C5)CC4)CC3)no2)C(C)C)cc1 [Compound 29]	< 2.5	> 75
Cc1ncsc1-c1ccc([C@H](C)NC(=O)[C@@H]2C[C@@H](O)CN2C(=O)[C@@H](c2cc(N3CCC(CN4CCC5(CC4)CC(N4CCO[C@@H](CN6CCOC7(CCCN(c8cc(-c9ccccc9O)nnc8N)C7)C6)C4)C5)CC3)no2)C(C)C)cc1 (stereo partly drawn) [Compound 22, (2S,4R)-1-[(2R)-2-{3-[4-({2-[(2S)-2-({8-[3-amino-6-(2-hydroxyphenyl)pyridazin-4-yl]-1-oxa-4,8-diazaspiro[5.5]undecan-4-yl}methyl)morpholin-4-yl]-7-azaspiro[3.5]nonan-7-yl}methyl)piperidin-1-yl]-1,2-oxazol-5-yl}-3-methylbutanoyl]-4-hydroxy-N-[(1S)-1-[4-(4-methyl-1,3-thiazol-5-yl)phenyl]ethyl]pyrrolidine-2-carboxamide]	< 2.5	> 75
Cc1ncsc1-c1ccc([C@H](C)NC(=O)[C@@H]2C[C@@H](O)CN2C(=O)[C@@H](c2cc(N3CCC(CN4CCC(O[C@H]5C[C@H](C#Cc6cn7cc(-c8ccccc8O)nc7nc6N)C5)CC4)CC3)no2)C(C)C)cc1 [Compound 28, (2S,4R)-4-hydroxy-N-[(1S)-1-[4-(4-methyl-1,3-thiazol-5-yl)phenyl]ethyl]-1-[(2R)-3-methyl-2-{3-[4-({4-[(1r,3r)-3-(2-[7-amino-2-(2-hydroxyphenyl)imidazo[1,2-a]pyrimidin-6-yl]ethynyl}cyclobutoxy]piperidin-1-yl}methyl)piperidin-1-yl]-1,2-oxazol-5-yl}butanoyl]pyrrolidine-2-carboxamide]	< 2.5	> 75
Cc1nccn1-c1ccc([C@H](C)NC(=O)[C@@H]2C[C@@H](O)CN2C(=O)[C@H](c2cc(OCCN3CCN(CCOc4cc(N5CCN(c6cc(-c7ccccc7O)nnc6N)CC56COC6)ccn4)CC3)no2)C(C)C)cc1 [Compound 21, (2S,4R)-1-[(2S)-2-{3-[2-(4-{2-[(4-{8-[3-amino-6-(2-hydroxyphenyl)pyridazin-4-yl]-2-oxa-5,8-diazaspiro[3.5]nonan-5-yl}pyridin-2-yl)oxy]ethyl}piperazin-1-yl)ethoxy]-1,2-oxazol-5-yl}-3-methylbutanoyl]-4-hydroxy-N-[(1S)-1-[4-(2-methyl-1H-imidazol-1-yl)phenyl]ethyl]pyrrolidine-2-carboxamide]	≥ 30	–
Cc1nccn1-c1ccc([C@H](C)NC(=O)[C@@H]2C[C@@H](O)CN2C(=O)[C@@H](c2cc(OCCN3CCN(CCOc4cc(N5CCN(c6cc(-c7ccccc7O)nnc6N)CC56COC6)ccn4)CC3)no2)C(C)C)cc1 [Compound 20, (2S,4R)-1-[(2R)-2-{3-[2-(4-{2-[(4-{8-[3-amino-6-(2-hydroxyphenyl)pyridazin-4-yl]-2-oxa-5,8-diazaspiro[3.5]nonan-5-yl}pyridin-2-yl)oxy]ethyl}piperazin-1-yl)ethoxy]-1,2-oxazol-5-yl}-3-methylbutanoyl]-4-hydroxy-N-[(1S)-1-[4-(2-methyl-1H-imidazol-1-yl)phenyl]ethyl]pyrrolidine-2-carboxamide]	2.5 to 10	> 75
Cc1ncsc1-c1ccc([C@H](C)NC(=O)[C@@H]2C[C@@H](O)CN2C(=O)[C@@H](c2cc(N3CCC(CN4CCC5(CC4)CC(N4CCO[C@@H](CN6CCOC7(CCN(c8cc(-c9ccccc9O)nnc8N)CC7)C6)C4)C5)CC3)no2)C(C)C)cc1 [Compound 26, (2S,4R)-1-[(2R)-2-{3-[4-({2-[(2S)-2-({9-[3-amino-6-(2-hydroxyphenyl)pyridazin-4-yl]-1-oxa-4,9-diazaspiro[5.5]undecan-4-yl}methyl)morpholin-4-yl]-7-azaspiro[3.5]nonan-7-yl}methyl)piperidin-1-yl]-1,2-oxazol-5-yl}-3-methylbutanoyl]-4-hydroxy-N-[(1S)-1-[4-(4-methyl-1,3-thiazol-5-yl)phenyl]ethyl]pyrrolidine-2-carboxamide]	< 2.5	> 75
